Laboratory results taken from patent publication US20230104936A1, “TRPML MODULATORS” (Casma Therapeutics, Inc., priority 2019, published 2023).

System: TFEB
Assay: TFEB nuclear translocation assay, HeLa wt cells
Format: cell-based
Details: Homo sapiens, HeLa, 2 h, 2 hrs compound treatment, Table 1 does not say HeLa wt or TRPML1 KO
Outline: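 HeLa wt, 2 hr compound, 37° C; 4% PFA fix; anti-TFEB (rabbit, 1:200, overnight 4° C) + Alexa 488 secondary, Hoechst. Imaged ×20, 4 fields/well. Readout: nuclear/ring Alexa 488 intensity ratio; AC50.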

For `COc1ccc(S(=O)(=O)Nc2ccccc2N2CCC(Cc3ccc(F)cc3F)CC2)cc1` [Compound A-195, N-(2-{4-[(2,4-difluorophenyl)methyl]piperidin-1-yl}phenyl)-4-methoxybenzene-1-sulfonamide], the AC50 was 2010 to 8000 nM.

`COc1ccc(S(=O)(=O)Nc2ccccc2N2CCC(Oc3ccc(F)cc3F)CC2)cc1` [Compound A-196, N-{2-[4-(2,4-difluorophenoxy)piperidin-1-yl]phenyl}-4-methoxybenzene-1-sulfonamide] showed an AC50 of no more than 2000 nM.

In the case of `COc1ccc(S(=O)(=O)Nc2ccccc2N2CCC(Cc3ccc(F)cc3F)C2)cc1` (stereo not drawn) [Compound A-197, N-(2-{3-[(2,4-difluorophenyl)methyl]pyrrolidin-1-yl}phenyl)-4-methoxybenzene-1-sulfonamide], the AC50 is reported as no less than 10000 nM.

In the case of `CCS(=O)(=O)c1ccc(S(=O)(=O)Nc2ccccc2N2CCC(c3c(F)cccc3F)CC2)cc1` [Compound A-198, N-{2-[4-(2,6-difluorophenyl)piperidin-1-yl]phenyl}-4-(ethanesulfonyl)benzene-1-sulfonamide], the AC50 is reported as no more than 2000 nM.

With `COc1ccc(S(=O)(=O)Nc2ccccc2N(C)c2ccc(F)cc2F)cc1` [Compound A-199, N-{2-[(2,4-difluorophenyl)(methyl)amino]phenyl}-4-methoxybenzene-1-sulfonamide] the AC50 was no less than 10000 nM.

`COc1ccc(S(=O)(=O)Nc2ccccc2N2CC(Oc3ccc(F)cc3F)C2)cc1` [Compound A-200, N-{2-[3-(2,4-difluorophenoxy)azetidin-1-yl]phenyl}-4-methoxybenzene-1-sulfonamide] showed an AC50 of 2010 to 8000 nM.

In the case of `COc1ccc(S(=O)(=O)Nc2ccccc2N2CCC(N(C)c3ccc(F)cc3F)C2)cc1` (stereo not drawn) [Compound A-201, N-(2-{3-[(2,4-difluorophenyl)(methyl)amino]pyrrolidin-1-yl}phenyl)-4-methoxybenzene-1-sulfonamide], the AC50 is reported as 2010 to 8000 nM.

For `COc1ccc(S(=O)(=O)Nc2ccccc2N2CCC(Oc3ccc(F)cc3F)C2)cc1` (stereo not drawn) [Compound A-202, N-{2-[3-(2,4-difluorophenoxy)pyrrolidin-1-yl]phenyl}-4-methoxybenzene-1-sulfonamide], the AC50 was no less than 10000 nM.

`CS(=O)(=O)c1ccc(S(=O)(=O)Nc2ccccc2N2CCC(O)(c3ccc(F)cc3)CC2)cc1` [Compound A-203, N-{2-[4-(4-fluorophenyl)-4-hydroxypiperidin-1-yl]phenyl}-4-methanesulfonylbenzene-1-sulfonamide] was tested, and the AC50 was 2010 to 8000 nM.

Molecule `CN(C)S(=O)(=O)c1ccc(S(=O)(=O)Nc2ccccc2N2CCC(C)(c3ccc(Cl)cc3F)CC2)cc1` [Compound A-204, N4-{2-[4-(4-chloro-2-fluorophenyl)-4-methylpiperidin-1-yl]phenyl}-N1,N1-dimethylbenzene-1,4-disulfonamide] has an AC50 of no more than 2000 nM.

`CN(C)S(=O)(=O)c1ccc(S(=O)(=O)Nc2ccccc2N2CCC(C)(c3ccc(F)cc3Cl)CC2)cc1` [Compound A-205, N4-{2-[4-(2-chloro-4-fluorophenyl)-4-methylpiperidin-1-yl]phenyl}-N1,N1-dimethylbenzene-1,4-disulfonamide] was tested, and the AC50 was no more than 2000 nM.

Work on `COc1ccc(S(=O)(=O)Nc2cnncc2N2CCC(c3ncc(F)cc3F)CC2)cc1` [Compound A-206, N-{5-[4-(3,5-difluoropyridin-2-yl)piperidin-1-yl]pyridazin-4-yl}-4-methoxybenzene-1-sulfonamide] yielded an AC50 of no less than 10000 nM.

For `COCS(=O)(=O)c1ccc(S(=O)(=O)Nc2ccccc2N2CCC(c3c(F)cccc3F)CC2)cc1` [Compound A-207, N-{2-[4-(2,6-difluorophenyl)piperidin-1-yl]phenyl}-4-methoxymethanesulfonylbenzene-1-sulfonamide], the AC50 was no more than 2000 nM.

In the case of `CN(C)S(=O)(=O)c1ccc(S(=O)(=O)Nc2ccccc2N2CCC(O)(c3ccc(F)cn3)CC2)cc1` [Compound A-209, N4-{2-[4-(5-fluoropyridin-2-yl)-4-hydroxypiperidin-1-yl]phenyl}-N1,N1-dimethylbenzene-1,4-disulfonamide], the AC50 is reported as no more than 2000 nM.

`CN(C)S(=O)(=O)c1ccc(S(=O)(=O)Nc2ccccc2N2CCC(O)(c3cc(Br)ncc3F)CC2)cc1` [Compound A-210, N4-{2-[4-(2-bromo-5-fluoropyridin-4-yl)-4-hydroxypiperidin-1-yl]phenyl}-N1,N1-dimethylbenzene-1,4-disulfonamide] was tested, and the AC50 was no more than 2000 nM.

`CN(C)C1(c2ccc(Cl)cc2F)CCN(c2ccccc2NS(=O)(=O)c2ccc(S(=O)(=O)N(C)C)cc2)CC1` [Compound A-211, N4-{2-[4-(4-chloro-2-fluorophenyl)-4-(dimethylamino)piperidin-1-yl]phenyl}-N1,N1-dimethylbenzene-1,4-disulfonamide] gave an AC50 of no more than 2000 nM.

Work on `CNC1(c2ccc(Cl)cc2F)CCN(c2ccccc2NS(=O)(=O)c2ccc(S(=O)(=O)N(C)C)cc2)CC1` [Compound A-212, N4-{2-[4-(4-chloro-2-fluorophenyl)-4-(methylamino)piperidin-1-yl]phenyl}-N1,N1-dimethylbenzene-1,4-disulfonamide] yielded an AC50 of no more than 2000 nM.

`CC(C)(C)S(=O)(=O)c1ccc(S(=O)(=O)Nc2ccccc2N2CCC(c3c(F)cccc3F)CC2)cc1` [Compound A-213, N-{2-[4-(2,6-difluorophenyl)piperidin-1-yl]phenyl}-4-(2-methylpropane-2-sulfonyl)benzene-1-sulfonamide] showed an AC50 of no more than 2000 nM.

In the case of `CN(C)S(=O)(=O)c1ccc(S(=O)(=O)Cc2ccccc2N2CCC(c3ccc(Cl)cc3F)CC2)cc1` [Compound A-214, 4-((2-(4-(4-chloro-2-fluorophenyl)piperidin-1-yl)benzyl)sulfonyl)-N,N-dimethylbenzenesulfonamide], the AC50 is reported as no more than 2000 nM.

`CN1CC2(CCN(c3ccccc3NS(=O)(=O)c3ccc(S(=O)(=O)N(C)C)cc3)CC2)c2ccc(F)cc21` [Compound A-215, N4-(2-{6-fluoro-1-methyl-1,2-dihydrospiro[indole-3,4′-piperidin]-1′-yl}phenyl)-N1,N1-dimethylbenzene-1,4-disulfonamide] showed an AC50 of no more than 2000 nM.

`CNC(=O)C1(c2ccc(F)cc2F)CCN(c2ccccc2NS(=O)(=O)c2ccc(S(=O)(=O)N(C)C)cc2)CC1` [Compound A-216, 4-(2,4-difluorophenyl)-1-{2-[4-(dimethylsulfamoyl)benzenesulfonamido]phenyl}-N-methylpiperidine-4-carboxamide] was tested, and the AC50 was no more than 2000 nM.

Work on `O=S(=O)(Nc1ccccc1N1CCC(c2c(F)cccc2F)CC1)c1ccc(S(=O)(=O)N2CCOCC2)cc1` [Compound A-217, N-{2-[4-(2,6-difluorophenyl)piperidin-1-yl]phenyl}-4-(morpholine-4-sulfonyl)benzene-1-sulfonamide] yielded an AC50 of no more than 2000 nM.

`CNCC1(c2ccc(F)cc2F)CCN(c2ccccc2NS(=O)(=O)c2ccc(S(=O)(=O)N(C)C)cc2)CC1` [Compound A-218, N4-{2-[4-(2,4-difluorophenyl)-4-[(methylamino)methyl]piperidin-1-yl]phenyl}-N1,N1-dimethylbenzene-1,4-disulfonamide] was tested, and the AC50 was no more than 2000 nM.

`COc1ccc(S(=O)(=O)Nc2ccccc2N2CC(Cc3ccc(F)cc3F)C2)cc1` [Compound A-219, N-(2-{3-[(2,4-difluorophenyl)methyl]azetidin-1-yl}phenyl)-4-methoxybenzene-1-sulfonamide] was tested, and the AC50 was no less than 10000 nM.

With `CN1CCN(S(=O)(=O)c2ccc(S(=O)(=O)Nc3ccccc3N3CCC(c4c(F)cccc4F)CC3)cc2)CC1` [Compound A-220, N-{2-[4-(2,6-difluorophenyl)piperidin-1-yl]phenyl}-4-[(4-methylpiperazin-1-yl)sulfonyl]benzene-1-sulfonamide] the AC50 was no less than 10000 nM.

`CN(C)CC1(c2ccc(F)cc2F)CCN(c2ccccc2NS(=O)(=O)c2ccc(S(=O)(=O)N(C)C)cc2)CC1` [Compound A-221, N4-{2-[4-(2,4-difluorophenyl)-4-[(dimethylamino)methyl]piperidin-1-yl]phenyl}-N1,N1-dimethylbenzene-1,4-disulfonamide] was tested, and the AC50 was no more than 2000 nM.

For `CN(C)C(c1ccc(S(=O)(=O)Nc2ccccc2N2CCC(c3ccc(Cl)cc3F)CC2)cc1)C(F)(F)F` (stereo not drawn) [Compound A-222, N-{2-[4-(4-chloro-2-fluorophenyl)piperidin-1-yl]phenyl}-4-[1-(dimethylamino)-2,2,2-trifluoroethyl]benzene-1-sulfonamide], the AC50 was no more than 2000 nM.

`CN(CCO)S(=O)(=O)c1ccc(S(=O)(=O)Nc2ccccc2N2CCC(c3c(F)cccc3F)CC2)cc1` [Compound A-223, N4-{2-[4-(2,6-difluorophenyl)piperidin-1-yl]phenyl}-N1-(2-hydroxyethyl)-N1-methylbenzene-1,4-disulfonamide] gave an AC50 of 2010 to 8000 nM.

For `CN(CC(C)(C)O)S(=O)(=O)c1ccc(S(=O)(=O)Nc2ccccc2N2CCC(c3c(F)cccc3F)CC2)cc1` [Compound A-224, N4-{2-[4-(2,6-difluorophenyl)piperidin-1-yl]phenyl}-N1-(2-hydroxy-2-methylpropyl)-N1-methylbenzene-1,4-disulfonamide], the AC50 was no less than 10000 nM.

`CN(C)S(=O)(=O)c1ccc(S(=O)(=O)Nc2ccccc2N2CCN(C(=O)C(C)(C)C)CC2)cc1` [Compound A-225, N4-{2-[4-(2,2-dimethylpropanoyl)piperazin-1-yl]phenyl}-N1,N1-dimethylbenzene-1,4-disulfonamide] was tested, and the AC50 was 2010 to 8000 nM.

`CN(C)S(=N)(=O)c1ccc(S(=O)(=O)Nc2ccc(F)cc2N2CCC(c3c(F)cccc3F)CC2)cc1` (stereo not drawn) [Compound A-226, 4-({2-[4-(2,6-difluorophenyl)piperidin-1-yl]-4-fluorophenyl}sulfamoyl)-N,N-dimethylbenzene-1-sulfonoimidamide] gave an AC50 of no more than 2000 nM.

In the case of `C=CP(=O)(C=C)c1ccccc1NS(=O)(=O)c1ccc(S(=O)(=O)N(C)C)cc1` [Compound A-227, N1-(2-(divinylphosphoryl)phenyl)-N4,N4-dimethylbenzene-1,4-disulfonamide], the AC50 is reported as no less than 10000 nM.

Molecule `CN(C)S(=N)(=O)c1ccc(S(=O)(=O)Nc2cc(F)ccc2N2CCC(c3c(F)cccc3F)CC2)cc1` (stereo not drawn) [Compound A-228, 4-({2-[4-(2,6-difluorophenyl)piperidin-1-yl]-5-fluorophenyl}sulfamoyl)-N,N-dimethylbenzene-1-sulfonoimidamide] has an AC50 of no more than 2000 nM.
